In patent US11987608B2, “Composition for accelerating cell proliferation comprising erythropoietin-derived peptide” (SYLUS CO., LTD., priority 2018, dated 2024):
Where two headings read alike, the source gives them in different places. No end group written: not given here.

Tests used:
[1] = biological target: T1, Soluble mouse EPOR chimera proteins (Mus musculus, UniProt P14753); test: SPR binding affinity of erythropoietin-derived peptides to erythropoietin receptor; conditions: for koff: read-out: Kd (dissociation rate); for kon: read-out: Ka (association rate)
T1 construct: Soluble mouse EPOR chimera proteins; purchased R&D Systems
T1 sequence (P14753 25-249 limits assumed): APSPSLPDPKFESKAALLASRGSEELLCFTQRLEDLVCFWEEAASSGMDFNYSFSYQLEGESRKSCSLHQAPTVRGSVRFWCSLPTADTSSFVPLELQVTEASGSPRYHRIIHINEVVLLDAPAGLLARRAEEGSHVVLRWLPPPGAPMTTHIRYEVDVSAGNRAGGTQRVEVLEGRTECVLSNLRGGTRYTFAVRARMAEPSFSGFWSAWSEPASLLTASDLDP
Method: The SPR technique is to measure interactions between biomolecules in real-time by using an optical principle without specific labeling, and is a system analyzing affinity between two molecules and kinetics, i.e., an association rate (Ka) and a dissociation rate (Kd).
In detail, real-time SPR analysis was performed using Reichert SPR Biosensor SR 7500C instrument (Reichert Inc., NY, USA). Soluble mouse EPOR chimera proteins (R&D Systems, Minneapolis, MN, USA) were covalently linked to a carboxymethylated dextran matrix-coated chip (BR-1005-39, Pharmacia Biosensor AB) by an amine coupling procedure using an amine coupling kit (BR-1000-50, GE Healthcare, USA) in accordance with manufacturer's instructions. Each 5 μM, 2.5 μM, and 1.25 μM of the peptide samples of the present disclosure and scrambled peptides were applied at a flow rate of 5 μl/minute, and the experiments were independently performed in duplicate. For signal normalization, DMSO was applied at a flow rate of 5 μl/minute, and after each binding cycle, the sensor chip was regenerated by injecting 25 mM acetic acid at a flow rate of 20 μl/minute.

[2] = test system: PC12 cells; test: Comparison of cell protective and proliferative effects to EPO by K-means clustering; type: cell-based; conditions: FIG. 9
[3] = biological target: T2, erythropoietin receptor (Homo sapiens, UniProt P19235); test: Erythropoietin receptor activation through ERK1/2 phosphorylation (western blot) in HEK 293 cells expressing EPOR-GFP; type: cell-based; conditions: FIG. 12; for character of erythropoietin receptor activation: ERK1/2 phosphorylation
T2 construct: expressed in transfected cells
T2 sequence (P19235 25-508): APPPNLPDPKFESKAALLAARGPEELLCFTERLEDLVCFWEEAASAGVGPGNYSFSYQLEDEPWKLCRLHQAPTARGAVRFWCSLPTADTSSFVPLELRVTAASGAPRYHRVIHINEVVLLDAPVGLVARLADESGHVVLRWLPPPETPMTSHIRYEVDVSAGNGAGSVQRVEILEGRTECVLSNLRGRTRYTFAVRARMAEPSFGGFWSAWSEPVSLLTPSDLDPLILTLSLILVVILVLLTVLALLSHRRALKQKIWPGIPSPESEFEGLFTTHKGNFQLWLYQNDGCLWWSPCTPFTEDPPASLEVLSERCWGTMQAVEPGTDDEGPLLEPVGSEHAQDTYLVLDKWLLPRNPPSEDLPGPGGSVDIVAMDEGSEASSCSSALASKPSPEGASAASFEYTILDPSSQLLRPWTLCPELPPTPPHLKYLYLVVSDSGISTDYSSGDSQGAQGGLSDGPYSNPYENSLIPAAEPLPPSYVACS

[4] = test system: PC12 cells; test: Cell proliferation, MTT assay; type: cell-based; conditions: 10 ng/ml peptide, 24 hours, FIG. 7
Method: To determine the side effect, such as cell proliferation, of the peptides prepared in Examples 1 to 3, cell viability was evaluated by an MTT assay.
In detail, PC12 cells were cultured in a DMEM (Dulbecco's Modified Eagle's Medium) medium (Hyclone, USA) and an RPM11640 medium (Hyclone, UT, USA), each supplemented with 10% fetal bovine serum (FBS, Hyclone, Utah, USA), 100 unit/ml penicillin, and 100 μg/ml streptomycin (Hyclone, UT, USA) in an incubator supplied with 5% CO2 and under a condition of 37° C. PC12 cell lines were seeded in a 96-well plate at a density of 5×10^4 cells/ml, and cultured under conditions of 37° C. and 5% CO2 for 24 hours. Thereafter, the cells were treated with each of the peptides of Examples 1 to 3, which were prepared at a concentration of 10 ng/ml, followed by incubation for 24 hours. Thereafter, 20 μl of 5 mg/ml 3-[4,5-dimethyl-thiazol]-2,5-diphenyl-tetrazolium bromide (MTT) reagent was added thereto, and allowed to react for 2 hours. After reaction, 200 μl of dimethyl sulfoxide (DMSO, Duksan, Gyeonggi-do, Korea) was added thereto to completely dissolve formed formazan, and absorbance at 570 nm was measured using a microplate reader (Molecular Devices, CA, USA).

[5] = test system: mice; test: In vivo hematopoietic activity, blood test; design: species or system mouse
Method: In vivo hematopoietic activities in a mouse were measured for the peptides prepared in Example 5, MLP, MLP-C, and MLP-H.
In detail, the prepared peptide or scrambled (Scr) peptide as a negative control group was administered by intraperitoneal injection to mice at a dose of 0 μg/kg, 1 μg/kg, or 100 μg/kg repeatedly, everyday over 14 days. Thereafter, a body weight test and a blood test were performed.

[6] = sampling at 0, 30, 60, 90 minutes
[7] = 100 μg/kg intraperitoneal daily over 14 days

## CC[C@H](C)[C@H](NC(=O)[C@H](C)NC(=O)[C@H](CCC(=O)O)NC(=O)[C@H](CCCCN)NC(=O)[C@H](CCC(N)=O)NC(=O)[C@H](C)NC(=O)CNC(=O)[C@H](CC(C)C)NC(=O)[C@H](C)NC(=O)[C@H](CCCNC(=N)N)NC(=O)[C@H](CC(C)C)NC(=O)[C@H](CC(C)C)NC(=O)[C@@H](NC(=O)[C@@H](NC(=O)[C@H](CC(C)C)NC(=O)[C@H](CO)NC(=O)[C@H](CCCNC(=N)N)NC(=O)[C@H](CC(C)C)NC(=O)CNC(=O)[C@@H](N)CO)[C@@H](C)O)[C@@H](C)O)C(=O)O [ML6]
[1]; SPR, Table 10
  koff: 0.045 s⁻¹

## AGLRSRAHLRRALA [ML5-1]
[1]; SPR, Table 10
  kon: 442 M⁻¹ s⁻¹
  koff: 0.0346 s⁻¹

## DEALDLEVDKAATGLRTLTTLIRAL [ML7-1]
[1]; SPR, Table 10
  kon: 226 M⁻¹ s⁻¹
  koff: 0.0144 s⁻¹

## DKAVSGLRSLTTLLRAL [ML8]
[1]; SPR, Table 10
  kon: 180 M⁻¹ s⁻¹
  koff: 0.08 s⁻¹

## DKAVSGLRSLTTLLRALGAQKEAI [ML4]
[1]; SPR, Table 10
  kon: 220 M⁻¹ s⁻¹
  koff: 0.0022 s⁻¹

## KGLRSLISLLRALGAQKEAI [ML6-1]
[1]; SPR, Table 10
  kon: 190 M⁻¹ s⁻¹
  koff: 0.03 s⁻¹

## KKAVSGLKTLTHILRALGAQKEAI [ML4-1]
[1]; SPR, Table 10
  kon: 410 M⁻¹ s⁻¹

## LDLEVDKAVSGLRSLTTLLRALG [ML1-C1]
[1]
  kon: 1750 M⁻¹ s⁻¹
  koff: 0.262 s⁻¹
[2]
  clustering of cell protective and proliferative effects relative to EPO: clustered as having similar effects as EPO

## LHVDKAVSGLRSLTTLLRAL [ML2]
[1]; SPR, Table 10
  koff: 0.0044 s⁻¹

## LHVLKAVSGLLTLTMIRRA (MLP-H) [ML1-H2 with two amino acids removed from both ends, for in vivo use]
[3]
  character of erythropoietin receptor activation: weak yet lasts for a prolonged period of time
[3]; [6]
  erythropoietin receptor activation after 30 minutes: maintains activation even after 30 minutes

## LQLHVDKAVSGLRSLTTLLRALG [ML1]
[1]; SPR, Table 10
  kon: 1310 M⁻¹ s⁻¹
  koff: 0.0085 s⁻¹
[1]; SPR, Table 11
  kon: 1310 M⁻¹ s⁻¹
  koff: 0.00847 s⁻¹
[2]
  cell proliferative effects compared to EPO groups: a large difference
  cell protective effects compared to EPO groups: no large difference

## LQLHVLKAVAGLRTLAMIRRALA [ML1-H3]
[1]; SPR, Table 11
  kon: 4160 M⁻¹ s⁻¹
  koff: 0.00477 s⁻¹
[2]
  cell proliferative effects compared to EPO groups: a large difference
  cell protective effects compared to EPO groups: no large difference

## LQLHVLKAVSGLLTHTTLLKALG [ML1-H1]
[1]; SPR, Table 11
  kon: 1010 M⁻¹ s⁻¹
  koff: 0.00794 s⁻¹
[2]
  cell proliferative effects compared to EPO groups: a large difference
  cell protective effects compared to EPO groups: no large difference

## LQLHVLKAVSGLLTLTMIRRALG [ML1-H2]
[1]; SPR, Table 11
  kon: 3430 M⁻¹ s⁻¹
  koff: 0.00105 s⁻¹
[2]
  cell proliferative effects compared to EPO groups: a large difference
  cell protective effects compared to EPO groups: no large difference

## LQLHVLKRVSGLLSHTMLLKALG [ML1-1]
[1]; SPR, Table 10
  kon: 5550 M⁻¹ s⁻¹
  koff: 0.0059 s⁻¹

## LQRHVDKRVSGLRSLTTLLRALG [ML1-C2]
[1]; SPR, Table 11
  kon: 1590 M⁻¹ s⁻¹
  koff: 0.0188 s⁻¹
[4]
  cell proliferation rate: cell proliferative effects to a degree similar to that of the natural erythropoietin
[2]
  clustering of cell protective and proliferative effects relative to EPO: clustered as having similar effects as EPO

## LQRHVKKRVKGLKSLTTLLRALG [ML1-C3]
[1]; SPR, Table 11
  kon: 1100 M⁻¹ s⁻¹
  koff: 0.0109 s⁻¹
[4]
  cell proliferation rate: cell proliferative effects to a degree similar to that of the natural erythropoietin
[2]
  clustering of cell protective and proliferative effects relative to EPO: clustered as having similar effects as EPO

## NKAVAGLRSLTVN [ML8-1]
[1]; SPR, Table 10
  koff: 0.15 s⁻¹

## RHVKKRVKGLKSLTTLLRA (MLP-C) [ML1-C3 with two amino acids removed from both ends, for in vivo use]
[5]; [7]
  hemoglobin content: significant increases
  mean corpuscular hemoglobin: significant increases
  mean corpuscular hemoglobin concentration: significant increases
[5]; 100 μg/kg intraperitoneal daily over 14 days, FIG. 11B
  red blood cell count: significant increases
[5]; intraperitoneal daily over 14 days, FIG. 11D
  platelet concentration: no large change
[5]; intraperitoneal, 1 or 100 μg/kg daily over 14 days, FIG. 11A
  hematocrit: significantly increased according to an administration dose
[3]
  character of erythropoietin receptor activation: brief but potent activation
[3]; [6]
  erythropoietin receptor activation after 30 minutes: decline thereafter
  time of maximum erythropoietin receptor activity (ERK1/2 phosphorylation): 30 min

## RHVQKAESGLRSLTKLLREL [ML2-1]
[1]; SPR, Table 10
  kon: 310 M⁻¹ s⁻¹
  koff: 0.0041 s⁻¹

## SGLRSLTTLLRALG [ML5]
[1]; SPR, Table 10
  kon: 304 M⁻¹ s⁻¹
  koff: 0.0001 s⁻¹

## TKVNFYAWKR [ML3]
[1]; SPR, Table 10
  kon: 205 M⁻¹ s⁻¹
  koff: 0.003 s⁻¹

## TRVNYQAWKR [ML3-1]
[1]; SPR, Table 10
  kon: 3080 M⁻¹ s⁻¹
  koff: 0.013 s⁻¹
